Measured values from the supplement of paper PMC10307832.

Experiments:
Test in all cases: relative viability (nuclei count vs DMSO), 5 days (fraction); higher = more cells survive
TGX 221 + Vorinostat = compound: CC1=CN2C(=O)C=C(N=C2C(=C1)C(C)NC3=CC=CC=C3)N4CCOCC4 [TGX 221] + O=C(CCCCCCC(=O)Nc1ccccc1)NO [Vorinostat] (partner 1 µM)
Method in brief: (§1)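 Medians of duplicate plates are given as relative viability. That measure is the nuclei count in treated wells divided by the count in vehicle wells. Counts were taken on 4× images of lung cancer cell lines in 1536-well plates, 5 days after pin-tool dosing the day after seeding with one drug alone or a fixed anchor-drug dose plus five library-drug doses (not always all listed) in √10 steps.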

Ricolinostat + Dasatinib = compound: O=C(CCCCCCNC(=O)c1cnc(N(c2ccccc2)c2ccccc2)nc1)NO [Ricolinostat] + Cc1nc(Nc2ncc(C(=O)Nc3c(C)cccc3Cl)s2)cc(N2CCN(CCO)CC2)n1 [Dasatinib] (partner 0.075 µM)
Method in brief: as §1

[1] = compound: C1=CC=C(C(=C1)C2=CC=C(C=C2)C3=CSC4=C3C(=C(C(=O)N4)C#N)O)O + CS(=O)(=O)CCNCc1ccc(-c2ccc3ncnc(Nc4ccc(OCc5cccc(F)c5)c(Cl)c4)c3c2)o1 [Lapatinib] (partner 2 µM)
Method in brief: as §1

[2] = compound: C1=CC=C(C(=C1)C2=CC=C(C=C2)C3=CSC4=C3C(=C(C(=O)N4)C#N)O)O + CC1(C)CCC(c2ccc(Cl)cc2)=C(CN2CCN(c3ccc(C(=O)NS(=O)(=O)c4ccc(N[C@H](CCN5CCOCC5)CSc5ccccc5)c(S(=O)(=O)C(F)(F)F)c4)cc3)CC2)C1 [Navitoclax] (partner 0.5 µM)
Method in brief: as §1

Row | Cell Line | relative viability (TGX 221 + Vorinostat; first compound 0.08 µM) | relative viability (TGX 221 + Vorinostat; first compound 0.253 µM) | relative viability (TGX 221 + Vorinostat; first compound 0.8 µM) | relative viability (TGX 221 + Vorinostat; first compound 2.53 µM) | relative viability (TGX 221 + Vorinostat; first compound 8 µM) | relative viability (Ricolinostat + Dasatinib; first compound 0.08 µM) | relative viability (Ricolinostat + Dasatinib; first compound 0.253 µM) | relative viability (Ricolinostat + Dasatinib; first compound 0.8 µM) | relative viability (Ricolinostat + Dasatinib; first compound 2.53 µM) | relative viability ([1]; first compound 0.08 µM) | relative viability ([1]; first compound 0.253 µM) | relative viability ([1]; first compound 0.8 µM) | relative viability ([1]; first compound 2.53 µM) | relative viability ([1]; first compound 8 µM) | relative viability ([2]; first compound 0.08 µM) | relative viability ([2]; first compound 0.253 µM) | relative viability ([2]; first compound 0.8 µM) | relative viability ([2]; first compound 2.53 µM) | relative viability ([2]; first compound 8 µM)
1 | LCLC-103H | 0.761 | 0.806 | 0.708 | 0.647 | 0.766 | 0.437 | 0.55 | 0.423 | 0.464 | – | – | – | – | – | – | – | – | – | –
2 | SK-LU-1 | 0.644 | 0.682 | 0.72 | 0.776 | 0.712 | 0.16 | 0.153 | 0.18 | 0.175 | 0.977 | 1.1 | 0.685 | 1.05 | 0.682 | 0.891 | 0.799 | 0.946 | 0.898 | 0.742
3 | NCI-H2347 | 0.745 | 0.506 | 0.478 | 0.618 | 0.465 | 0.318 | 0.372 | 0.309 | 0.285 | 0.844 | 1.17 | 0.889 | 0.916 | 0.932 | 0.642 | 0.781 | 0.776 | 0.79 | 0.647
4 | ABC-1 | 1.2 | 0.753 | 0.996 | 0.981 | 1.29 | 0.556 | 0.632 | 0.563 | 0.489 | 1.52 | 1.49 | 1.42 | 1.13 | 0.997 | – | – | – | – | –
5 | NCI-H1563 | – | – | – | – | – | 0.472 | 0.461 | 0.441 | 0.494 | 0.715 | 0.868 | 1.01 | 0.881 | 0.989 | – | – | – | – | –
6 | NCI-H1355 | 0.614 | 0.577 | 0.591 | 0.629 | 0.558 | 0.588 | 0.69 | 0.645 | 0.62 | 0.949 | 0.966 | 1.1 | 0.81 | 0.999 | 1.1 | 1.02 | 0.935 | 0.957 | 0.777
7 | NCI-H2228 | 0.462 | 0.324 | 0.599 | 0.575 | 0.302 | 0.432 | 0.591 | 0.457 | 0.382 | 0.701 | 1.33 | 0.814 | 0.998 | 1.1 | 1 | 1.12 | 0.828 | 1.12 | 0.848
8 | NCI-H2342 | 0.697 | 0.711 | 0.836 | 0.804 | 0.793 | 0.32 | 0.311 | 0.365 | 0.293 | – | – | – | – | – | – | – | – | – | –
9 | IA-LM | – | 0.981 | 1.01 | 0.827 | 0.941 | – | – | – | – | 0.538 | 0.413 | 0.599 | 0.952 | 0.537 | 0.696 | 1.06 | 0.76 | 0.797 | 0.399
10 | A549 | – | – | – | – | – | – | – | – | – | 1.01 | 0.912 | 1.06 | 0.971 | 0.918 | 1.37 | 1.44 | 1.28 | 1.28 | 1.04
11 | NCI-H1299 | – | – | – | – | – | – | – | – | – | 0.923 | 0.929 | 0.987 | 0.961 | 0.948 | 1.12 | 1.02 | 1.04 | 1.1 | 1.07
12 | NCI-H661 | 0.794 | 0.755 | 0.78 | 0.925 | 0.785 | 0.795 | 0.88 | 0.889 | 0.731 | 0.446 | 0.481 | 0.501 | 0.507 | 0.382 | – | – | – | – | –
13 | SW 900 | – | 0.473 | 0.403 | 0.37 | 0.505 | 0.495 | 0.578 | 0.662 | 0.352 | – | – | – | – | – | – | – | – | – | –
14 | NCI-H1703 | – | – | – | – | – | – | – | – | – | 0.896 | 1.2 | 0.945 | 1.16 | 0.939 | 0.989 | 1.04 | 1.2 | 0.93 | 0.962
15 | NCI-H522 | 0.976 | 0.822 | 0.883 | 0.831 | 0.826 | 0.867 | 0.884 | 0.946 | 0.872 | – | – | – | – | – | – | – | – | – | –
16 | NCI-H1623 | – | – | – | – | – | 0.484 | 0.612 | 0.528 | 0.475 | – | – | – | – | – | – | – | – | – | –
17 | Calu-6 | – | – | – | – | – | – | – | – | – | 1.03 | 1.03 | 1.21 | 1.27 | 1.03 | 0.831 | 0.981 | 1.03 | 0.843 | 0.785
18 | NCI-H650 | 0.425 | 0.488 | 0.459 | 0.542 | 0.401 | 0.36 | 0.463 | 0.365 | 0.314 | 0.625 | 1.09 | 0.742 | 1.09 | 0.763 | – | – | – | – | –
19 | EBC-1 | – | – | – | – | – | – | – | – | – | 0.265 | 0.226 | 0.223 | 0.209 | 0.173 | 0.353 | 0.371 | 0.425 | 0.37 | 0.348
20 | NCI-H358 | 0.746 | 0.663 | 0.71 | 0.668 | 0.602 | 0.164 | 0.168 | 0.146 | 0.187 | 0.431 | 0.473 | 0.549 | 0.49 | 0.41 | – | – | – | – | –
21 | NCI-H441 | 0.717 | 0.785 | 0.724 | 0.856 | 0.859 | – | 0.586 | 0.601 | 0.538 | – | – | – | – | – | – | 0.644 | – | 0.837 | 0.604
